How the values were obtained:
Type in all cases: in vivo
Abutilon theophrasti = assay: Post-emergence herbicidal efficacy at 320 g/ha, ABUTH; details: rated visually after about 3 weeks vs untreated controls, 100% = plants have died
Description: (§1) Unwanted plants/weeds: • ABUTH: Abutilon theophrasti • ALOMY: Alopecurus myosuroides • AMARE: Amaranthus retroflexus • DIGSA: Digitaria sanguinalis • ECHCG: Echinochloa crus-galli • KCHSC: Kochia scoparia • LOLRI: Lolium rigidum • MATIN: Matricaria inodora • POAAN: Poa annua • POLCO: Polygonum convolvulus • SETVI: Setaria viridis • STEME: Stellaria media • VERPE: Veronica persica • VIOTR: Viola tricolor A. Post-Emergence Herbicidal Efficacy at 320 g/ha
(§2) Seeds of mono- and dicotyledonous weed plants were placed in plastic pots in sandy loam soil (doubly sown with in each case one species of mono- or dicotyledonous weed plants per pot), covered with soil and cultivated in a greenhouse under controlled growth conditions. 2 to 3 weeks after sowing, the test plants were treated at the one-leaf stage. The compounds of the invention, formulated in the form of wettable powders (WP) or as emulsion concentrates (EC), were applied to the green parts of the plants as aqueous suspension or emulsion with addition of 0.5% additive at a water application rate equivalent to 600 litres per hectare. After the test plants had been kept in the greenhouse under optimum growth conditions for about 3 weeks, the activity of the preparations was rated visually in comparison to untreated controls.
(§3) For example, 100% activity=the plants have died, 0% activity=like control plants.
(§4) Tables A1 to A10 below show the effects of selected compounds of the general formula (I) according to Table 1 on various harmful plants and at an application rate corresponding to 320 g/ha, which were obtained by the trial procedure specified above.

Amaranthus retroflexus [1] = assay: Post-emergence herbicidal efficacy at 320 g/ha, AMARE; details: rated visually after about 3 weeks vs untreated controls, 100% = plants have died
Description: as §1, §2, §3, §4

Kochia scoparia [2] = assay: Post-emergence herbicidal efficacy at 320 g/ha, KCHSC; details: rated visually after about 3 weeks vs untreated controls, 100% = plants have died
Description: as §1, §2, §3, §4

Stellaria media [3] = assay: Post-emergence herbicidal efficacy at 320 g/ha, STEME; details: rated visually after about 3 weeks vs untreated controls, 100% = plants have died
Description: as §1, §2, §3, §4

Veronica persica [4] = assay: Post-emergence herbicidal efficacy at 320 g/ha, VERPE; details: rated visually after about 3 weeks vs untreated controls, 100% = plants have died
Description: as §1, §2, §3, §4

Amaranthus retroflexus [5] = assay: Post-emergence herbicidal efficacy at 80 g/ha, AMARE; details: rated visually after about 3 weeks vs untreated controls, 100% = plants have died
Description: as §1
(§5) Seeds of monocotyledonous and dicotyledonous weeds and crop plants were placed in sandy loam in plastic or organic planting pots, covered with soil and cultivated in a greenhouse under controlled growth conditions. 2 to 3 weeks after sowing, the test plants were treated at the one-leaf stage. The compounds of the invention, formulated in the form of wettable powders (WP) or as emulsion concentrates (EC), were then sprayed onto the green parts of the plants as aqueous suspension or emulsion with addition of 0.5% additive at a water application rate of 600 l/ha (converted). After the test plants had been kept in the greenhouse under optimum growth conditions for about 3 weeks, the activity of the preparations was rated visually in comparison to untreated controls. For example, 100% activity=the plants have died, 0% activity=like control plants.
(§6) Tables B1 to B11 below show the effects of selected compounds of the general formula (I) according to Table 1 on various harmful plants and an application rate corresponding to 80 g/ha, which were obtained by the experimental procedure mentioned above.

Kochia scoparia [6] = assay: Post-emergence herbicidal efficacy at 80 g/ha, KCHSC; details: rated visually after about 3 weeks vs untreated controls, 100% = plants have died
Description: as §1, §5, §6

Veronica persica [7] = assay: Post-emergence herbicidal efficacy at 80 g/ha, VERPE; details: rated visually after about 3 weeks vs untreated controls, 100% = plants have died
Description: as §1, §5, §6

Amaranthus retroflexus [8] = assay: Pre-emergence herbicide efficacy at 320 g/ha, AMARE; details: scored visually after about 3 weeks vs untreated controls, 100% = plants have died
Description: as §1
(§7) Seeds of mono- and dicotyledonous weed plants were placed in plastic pots in sandy loam soil (doubly sown with one species each of mono- or dicotyledonous weed plants per pot) and covered with soil. The compounds of the invention, formulated in the form of wettable powders (WP) or as emulsion concentrates (EC), were then applied to the surface of the covering soil as aqueous suspension or emulsion with addition of 0.5% additive at a water application rate of 600 litres per hectare (converted). After the treatment, the pots were placed in a greenhouse and kept under good growth conditions for the test plants. After about 3 weeks, the efficacy of the preparations was scored visually in comparison with untreated controls as percentages.
as §3
(§8) Tables C1 to C12 below show the effects of selected compounds of the general formula (I) according to Table 1 on various harmful plants and at an application rate corresponding to 320 g/ha, which were obtained by the trial procedure specified above.

Echinochloa crus-galli [9] = assay: Pre-emergence herbicide efficacy at 320 g/ha, ECHCG; details: scored visually after about 3 weeks vs untreated controls, 100% = plants have died
Description: as §1, §7, §3, §8

Kochia scoparia [10] = assay: Pre-emergence herbicide efficacy at 320 g/ha, KCHSC; details: scored visually after about 3 weeks vs untreated controls, 100% = plants have died
Description: as §1, §7, §3, §8

Poa annua [11] = assay: Pre-emergence herbicide efficacy at 320 g/ha, POAAN; details: scored visually after about 3 weeks vs untreated controls, 100% = plants have died
Description: as §1, §7, §3, §8

Setaria viridis [12] = assay: Pre-emergence herbicide efficacy at 320 g/ha, SETVI; details: scored visually after about 3 weeks vs untreated controls, 100% = plants have died
Description: as §1, §7, §3, §8

Stellaria media [13] = assay: Pre-emergence herbicide efficacy at 320 g/ha, STEME; details: scored visually after about 3 weeks vs untreated controls, 100% = plants have died
Description: as §1, §7, §3, §8

Veronica persica [14] = assay: Pre-emergence herbicide efficacy at 320 g/ha, VERPE; details: scored visually after about 3 weeks vs untreated controls, 100% = plants have died
Description: as §1, §7, §3, §8

Amaranthus retroflexus [15] = assay: Pre-emergence herbicide efficacy at 80 g/ha, AMARE; details: scored visually after about 3 weeks vs untreated controls, 100% = plants have died
Description: as §1
(§9) Seeds of monocotyledonous and dicotyledonous weed plants and crop plants were placed in plastic or organic planting pots and covered with soil. The compounds of the invention, formulated in the form of wettable powders (WP) or as emulsion concentrates (EC), were then applied to the surface of the covering soil as aqueous suspension or emulsion with addition of 0.5% additive at a water application rate equivalent to 600 l/ha. After the treatment, the pots were placed in a greenhouse and kept under good growth conditions for the test plants. After about 3 weeks, the efficacy of the preparations was scored visually in comparison with untreated controls as percentages. For example, 100% activity=the plants have died, 0% activity=like control plants.
(§10) Tables D1 to D12 below show the effects of selected compounds of the general formula (I) according to Table 1 on various harmful plants and an application rate corresponding to 80 g/ha, which were obtained by the experimental procedure mentioned above.

Setaria viridis [16] = assay: Pre-emergence herbicide efficacy at 80 g/ha, SETVI
Description: as §1, §9, §10

Viola tricolor = assay: Pre-emergence herbicide efficacy at 80 g/ha, VIOTR
Description: as §1, §9, §10

Poa annua [17] = assay: Post-emergence herbicidal efficacy at 320 g/ha, POAAN; details: rated visually after about 3 weeks vs untreated controls, 100% = plants have died
Description: as §1, §2, §3, §4

Matricaria inodora = assay: Pre-emergence herbicide efficacy at 320 g/ha, MATIN; details: scored visually after about 3 weeks vs untreated controls, 100% = plants have died
Description: as §1, §7, §3, §8

Digitaria sanguinalis [18] = assay: Post-emergence herbicidal efficacy at 320 g/ha, DIGSA; details: rated visually after about 3 weeks vs untreated controls, 100% = plants have died
Description: as §1, §2, §3, §4

Digitaria sanguinalis [19] = assay: Pre-emergence herbicide efficacy at 320 g/ha, DIGSA; details: scored visually after about 3 weeks vs untreated controls, 100% = plants have died
Description: as §1, §7, §3, §8

Echinochloa crus-galli [20] = assay: Post-emergence herbicidal efficacy at 320 g/ha, ECHCG; details: rated visually after about 3 weeks vs untreated controls, 100% = plants have died
Description: as §1, §2, §3, §4

Setaria viridis [21] = assay: Post-emergence herbicidal efficacy at 320 g/ha, SETVI; details: rated visually after about 3 weeks vs untreated controls, 100% = plants have died
Description: as §1, §2, §3, §4

Digitaria sanguinalis [22] = assay: Pre-emergence herbicide efficacy at 80 g/ha, DIGSA; details: scored visually after about 3 weeks vs untreated controls, 100% = plants have died
Description: as §1, §9, §10

Kochia scoparia [23] = assay: Pre-emergence herbicide efficacy at 80 g/ha, KCHSC; details: scored visually after about 3 weeks vs untreated controls, 100% = plants have died
Description: as §1, §9, §10

Structure (SMILES)	Post-emergence efficacy at 320 g/ha against ABUTH in % (Abutilon theophrasti) [%]	Post-emergence efficacy at 320 g/ha against AMARE in % (Amaranthus retroflexus [1]) [%]	Post-emergence efficacy at 320 g/ha against KCHSC in % (Kochia scoparia [2]) [%]	Post-emergence efficacy at 320 g/ha against STEME in % (Stellaria media [3]) [%]	Post-emergence efficacy at 320 g/ha against VERPE in % (Veronica persica [4]) [%]	Pre-emergence efficacy at 320 g/ha against AMARE in % (Amaranthus retroflexus [8]) [%]	Pre-emergence efficacy at 320 g/ha against KCHSC in % (Kochia scoparia [10]) [%]	Pre-emergence efficacy at 320 g/ha against POAAN in % (Poa annua [11]) [%]	Pre-emergence efficacy at 320 g/ha against SETVI in % (Setaria viridis [12]) [%]	Pre-emergence efficacy at 320 g/ha against STEME in % (Stellaria media [13]) [%]	Pre-emergence efficacy at 320 g/ha against VERPE in % (Veronica persica [14]) [%]	Pre-emergence efficacy at 320 g/ha against MATIN in % (Matricaria inodora) [%]	Pre-emergence efficacy at 320 g/ha against DIGSA in % (Digitaria sanguinalis [19]) [%]	further results
Cc1cnn(-c2c(C#N)cccc2Nc2ncc(F)cn2)c1 [Example 1-67]	90	100	90	100	100	100	100	90	100	100	90			Post-emergence efficacy at 80 g/ha against AMARE in % (Amaranthus retroflexus [5]): 100%; Post-emergence efficacy at 80 g/ha against KCHSC in % (Kochia scoparia [6]): 90%; Post-emergence efficacy at 80 g/ha against VERPE in % (Veronica persica [7]): 90%; Pre-emergence efficacy at 320 g/ha against ECHCG in % (Echinochloa crus-galli [9]): 100%; Pre-emergence efficacy at 80 g/ha against AMARE in % (Amaranthus retroflexus [15]): 100%; Pre-emergence efficacy against SETVI (Setaria viridis [16]): 100%; Pre-emergence efficacy against VIOTR (Viola tricolor): 90%
FC(F)(F)CCCCc1ccccc1Nc1ncc(Cl)cn1 [Example 1-2]		100	90		100									Post-emergence efficacy at 320 g/ha against POAAN in % (Poa annua [17]): 90%
N#Cc1cccc(Nc2ncccn2)c1-n1cc(C(F)(F)F)cn1 [Example 1-40]		90			90	100	90					90		
N#Cc1cccc(Nc2ncc(Cl)cn2)c1-c1ccc(F)c(F)c1 [Example 1-29]		100	100	90	100	100								Post-emergence efficacy at 320 g/ha against DIGSA in % (Digitaria sanguinalis [18]): 90%
N#Cc1cnc(Nc2cccc(C#N)c2-n2cc(C(F)(F)F)cn2)nc1 [Example 1-42]		100	90		90	90	90		90	90		100	100	
Fc1cccc(Nc2ncc(Cl)cn2)c1-n1cc(C(F)(F)F)cn1 [Example 1-47]	90	90		90	90	100		100	100	90	100		90	Post-emergence efficacy at 320 g/ha against DIGSA in % (Digitaria sanguinalis [18]): 90%; Post-emergence efficacy at 320 g/ha against ECHCG in % (Echinochloa crus-galli [20]): 90%; Post-emergence efficacy at 320 g/ha against SETVI in % (Setaria viridis [21]): 90%; Pre-emergence efficacy at 320 g/ha against ECHCG in % (Echinochloa crus-galli [9]): 100%
Clc1cnc(Cc2ccccc2Nc2ncc(Cl)cn2)nc1 [Example 1-51]														Post-emergence efficacy at 80 g/ha against AMARE in % (Amaranthus retroflexus [5]): 100%; Post-emergence efficacy at 80 g/ha against KCHSC in % (Kochia scoparia [6]): 100%; Post-emergence efficacy at 80 g/ha against VERPE in % (Veronica persica [7]): 80%; Pre-emergence efficacy at 80 g/ha against AMARE in % (Amaranthus retroflexus [15]): 100%; Pre-emergence efficacy at 80 g/ha against DIGSA in % (Digitaria sanguinalis [22]): 80%; Pre-emergence efficacy at 80 g/ha against KCHSC in % (Kochia scoparia [23]): 100%
N#Cc1cccc(Nc2ncc(Cl)cn2)c1Cc1ccc(F)cc1 [Example 1-23]		100		100	100	100		100	100	90	90	100	90	Post-emergence efficacy at 320 g/ha against POAAN in % (Poa annua [17]): 100%
COCc1cnn(-c2c(C#N)cccc2Nc2ncc(Cl)cn2)c1 [Example 1-68]	90	100	100	100	100	100	100				90		100	Post-emergence efficacy at 320 g/ha against SETVI in % (Setaria viridis [21]): 90%
N#Cc1cccc(Nc2ncc(F)cn2)c1-c1ccc(F)c(F)c1 [Example 1-30]		100	100	100	100	100	90	90	100	100	100	90	100	
